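How tested: cells in 96-well plates exposed to compound for 48 hours at five concentrations. TGI is the concentration that stops growth completely.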 Active and inactive are the calls of the source. No stated cut-off is given here; in the data, active means GI50 below about 0.43 µM; inactive means the rest.
Experiments:
Assay in all cases: NCI tumour cell line growth inhibition, 48 h
MALME-3M melanoma = test system: MALME-3M melanoma
MDA-MB-231 breast = test system: MDA-MB-231 breast
ACHN renal = test system: ACHN renal
RXF 393 renal = test system: RXF 393 renal
NCI-H460 lung = test system: NCI-H460 lung
SNB-75 CNS = test system: SNB-75 CNS
SK-MEL-5 melanoma = test system: SK-MEL-5 melanoma
T-47D breast = test system: T-47D breast
NCI-H522 lung = test system: NCI-H522 lung
DMS 114 small cell lung = test system: DMS 114 small cell lung
SW-620 colon = test system: SW-620 colon
786-0 renal = test system: 786-0 renal
OVCAR-4 ovarian = test system: OVCAR-4 ovarian
HOP-62 NSCLC = test system: HOP-62 NSCLC
HCC-2998 colon = test system: HCC-2998 colon
OVCAR-5 ovarian = test system: OVCAR-5 ovarian
CCRF-CEM leukemia = test system: CCRF-CEM leukemia
HL-60(TB) leukemia = test system: HL-60(TB) leukemia
IGROV1 ovarian = test system: IGROV1 ovarian
DMS 273 small cell lung = test system: DMS 273 small cell lung
SNB-19 CNS = test system: SNB-19 CNS
COLO 205 colon = test system: COLO 205 colon
BT-549 breast = test system: BT-549 breast
SF-539 CNS = test system: SF-539 CNS
LXFL 529 NSCLC = test system: LXFL 529 NSCLC
KM12 colon = test system: KM12 colon
HCT-15 colon = test system: HCT-15 colon
HOP-92 NSCLC = test system: HOP-92 NSCLC
MCF7 breast = test system: MCF7 breast
LOX IMVI melanoma = test system: LOX IMVI melanoma
SNB-78 CNS = test system: SNB-78 CNS
DU-145 prostate = test system: DU-145 prostate
TK-10 renal = test system: TK-10 renal
HT29 colon = test system: HT29 colon
SK-MEL-2 melanoma = test system: SK-MEL-2 melanoma
NCI-H23 lung = test system: NCI-H23 lung
UACC-257 melanoma = test system: UACC-257 melanoma
U251 CNS = test system: U251 CNS
UO-31 renal = test system: UO-31 renal
OVCAR-8 ovarian = test system: OVCAR-8 ovarian
UACC-62 melanoma = test system: UACC-62 melanoma
KM20L2 colon = test system: KM20L2 colon
EKVX NSCLC = test system: EKVX NSCLC
MDA-N = test system: MDA-N
RPMI-8226 leukemia = test system: RPMI-8226 leukemia
NCI/ADR-RES ovarian = test system: NCI/ADR-RES ovarian
M19-MEL melanoma = test system: M19-MEL melanoma
MOLT-4 leukemia = test system: MOLT-4 leukemia
HCT-116 colon = test system: HCT-116 colon
SF-268 CNS = test system: SF-268 CNS

SMILES: C=CC(=O)C#CC#CC/C=C\CCCCCCC
- TGI (MALME-3M melanoma): > 20.6 µM
- outcome (MALME-3M melanoma): inactive
- TGI (MDA-MB-231 breast): > 20.6 µM
- outcome (MDA-MB-231 breast): inactive
- TGI (ACHN renal): > 20.6 µM
- outcome (ACHN renal): inactive
- TGI (RXF 393 renal): > 19.5 µM
- outcome (RXF 393 renal): inactive
- TGI (NCI-H460 lung): > 20.6 µM
- outcome (NCI-H460 lung): inactive
- TGI (SNB-75 CNS): > 20.6 µM
- outcome (SNB-75 CNS): inactive
- TGI (SK-MEL-5 melanoma): > 20.6 µM
- outcome (SK-MEL-5 melanoma): inactive
- TGI (T-47D breast): > 20.6 µM
- outcome (T-47D breast): inactive
- TGI (NCI-H522 lung): > 20.6 µM
- outcome (NCI-H522 lung): inactive
- TGI (DMS 114 small cell lung): > 20.6 µM
- TGI (SW-620 colon): > 20.6 µM
- outcome (SW-620 colon): inactive
- TGI (786-0 renal): > 18.4 µM
- outcome (786-0 renal): inactive
- TGI (OVCAR-4 ovarian): > 20.6 µM
- outcome (OVCAR-4 ovarian): inactive
- TGI (HOP-62 NSCLC): > 20.6 µM
- outcome (HOP-62 NSCLC): inactive
- TGI (HCC-2998 colon): > 20.6 µM
- outcome (HCC-2998 colon): inactive
- TGI (OVCAR-5 ovarian): > 20.6 µM
- outcome (OVCAR-5 ovarian): inactive
- TGI (CCRF-CEM leukemia): > 17.3 µM
- outcome (CCRF-CEM leukemia): inactive
- TGI (HL-60(TB) leukemia): > 20.6 µM
- outcome (HL-60(TB) leukemia): inactive
- TGI (IGROV1 ovarian): > 6.51 µM
- outcome (IGROV1 ovarian): inactive
- TGI (DMS 273 small cell lung): > 20.6 µM
- TGI (SNB-19 CNS): > 20.6 µM
- outcome (SNB-19 CNS): inactive
- TGI (COLO 205 colon): > 20.6 µM
- outcome (COLO 205 colon): inactive
- TGI (BT-549 breast): > 20.6 µM
- TGI (SF-539 CNS): > 20.6 µM
- outcome (SF-539 CNS): inactive
- TGI (LXFL 529 NSCLC): > 20.6 µM
- TGI (KM12 colon): > 20.6 µM
- outcome (KM12 colon): inactive
- TGI (HCT-15 colon): > 20.6 µM
- outcome (HCT-15 colon): inactive
- TGI (HOP-92 NSCLC): > 20.6 µM
- TGI (MCF7 breast): > 20.6 µM
- outcome (MCF7 breast): inactive
- TGI (LOX IMVI melanoma): > 20.6 µM
- outcome (LOX IMVI melanoma): inactive
- TGI (SNB-78 CNS): > 20.6 µM
- TGI (DU-145 prostate): > 20.6 µM
- outcome (DU-145 prostate): inactive
- TGI (TK-10 renal): > 20.6 µM
- outcome (TK-10 renal): inactive
- TGI (HT29 colon): > 20.6 µM
- outcome (HT29 colon): inactive
- TGI (SK-MEL-2 melanoma): > 20.6 µM
- outcome (SK-MEL-2 melanoma): inactive
- TGI (NCI-H23 lung): > 20.6 µM
- outcome (NCI-H23 lung): inactive
- TGI (UACC-257 melanoma): > 20.6 µM
- outcome (UACC-257 melanoma): inactive
- TGI (U251 CNS): > 20.6 µM
- outcome (U251 CNS): inactive
- TGI (UO-31 renal): > 20.6 µM
- outcome (UO-31 renal): inactive
- TGI (OVCAR-8 ovarian): > 20.6 µM
- outcome (OVCAR-8 ovarian): inactive
- TGI (UACC-62 melanoma): > 20.6 µM
- outcome (UACC-62 melanoma): inactive
- TGI (KM20L2 colon): > 20.6 µM
- TGI (EKVX NSCLC): > 20.6 µM
- outcome (EKVX NSCLC): inactive
- outcome (MDA-N): inactive
- TGI (RPMI-8226 leukemia): > 18.6 µM
- outcome (RPMI-8226 leukemia): inactive
- TGI (NCI/ADR-RES ovarian): > 20.6 µM
- outcome (NCI/ADR-RES ovarian): inactive
- TGI (M19-MEL melanoma): > 20.6 µM
- TGI (MOLT-4 leukemia): 12.3 µM
- outcome (MOLT-4 leukemia): inactive
- TGI (HCT-116 colon): > 20.6 µM
- outcome (HCT-116 colon): inactive
- TGI (SF-268 CNS): > 20.6 µM
- outcome (SF-268 CNS): inactive

— PubChem BioAssay (NCI)
